Common to all, as to assay: SILAC proteomics / in-gel fluorescence, competition of probe 13-t labeling by 3a
The target in experiment [1] is T1, proteins of HEK293T cells transiently overexpressing caspase-6 (Homo sapiens, UniProt P25789).
T1 sequence (P25789 1-261): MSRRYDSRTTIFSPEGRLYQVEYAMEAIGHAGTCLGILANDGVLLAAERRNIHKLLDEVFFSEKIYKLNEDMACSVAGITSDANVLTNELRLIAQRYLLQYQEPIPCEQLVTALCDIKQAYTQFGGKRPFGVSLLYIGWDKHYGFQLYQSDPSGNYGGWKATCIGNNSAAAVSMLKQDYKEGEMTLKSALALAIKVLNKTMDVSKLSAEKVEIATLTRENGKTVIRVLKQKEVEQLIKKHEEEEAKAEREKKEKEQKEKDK

For experiment [2], the target named is proteins of HEK293T cells transiently overexpressing caspase-6 (Homo sapiens, UniProt P27348). The following applies: Comp; protein YWHAQ P27348.
Sequence of proteins of HEK293T cells transiently overexpressing caspase-6 (Homo sapiens, UniProt P27348) (P27348 whole entry): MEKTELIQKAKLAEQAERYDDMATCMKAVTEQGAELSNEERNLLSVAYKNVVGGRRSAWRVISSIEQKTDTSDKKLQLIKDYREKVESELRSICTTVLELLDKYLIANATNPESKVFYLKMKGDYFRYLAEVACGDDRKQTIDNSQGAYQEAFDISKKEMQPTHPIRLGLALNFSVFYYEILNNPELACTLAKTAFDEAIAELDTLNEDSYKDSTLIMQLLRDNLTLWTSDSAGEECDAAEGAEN
For experiment [3], the target named is proteins of HEK293T cells transiently overexpressing caspase-6 (Homo sapiens, UniProt P06733). The following applies: Comp; protein ENO1 P06733.
Sequence of proteins of HEK293T cells transiently overexpressing caspase-6 (Homo sapiens, UniProt P06733) (P06733 whole entry): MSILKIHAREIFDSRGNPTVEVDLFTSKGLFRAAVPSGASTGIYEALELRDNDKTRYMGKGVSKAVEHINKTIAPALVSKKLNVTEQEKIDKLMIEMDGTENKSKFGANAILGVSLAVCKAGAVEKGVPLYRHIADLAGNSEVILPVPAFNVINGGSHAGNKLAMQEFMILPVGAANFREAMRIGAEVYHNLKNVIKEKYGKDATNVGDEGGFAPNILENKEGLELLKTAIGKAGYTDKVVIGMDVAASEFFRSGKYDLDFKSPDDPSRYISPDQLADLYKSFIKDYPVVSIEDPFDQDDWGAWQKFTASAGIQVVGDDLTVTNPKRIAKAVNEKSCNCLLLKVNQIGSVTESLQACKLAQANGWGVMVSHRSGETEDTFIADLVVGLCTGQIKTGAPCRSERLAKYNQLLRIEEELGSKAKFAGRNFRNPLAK
For experiment [4], the target named is proteins of HEK293T cells transiently overexpressing caspase-6 (Homo sapiens, UniProt Q14566). The following applies: Comp; protein MCM6 Q14566.
Sequence of proteins of HEK293T cells transiently overexpressing caspase-6 (Homo sapiens, UniProt Q14566) (Q14566 whole entry): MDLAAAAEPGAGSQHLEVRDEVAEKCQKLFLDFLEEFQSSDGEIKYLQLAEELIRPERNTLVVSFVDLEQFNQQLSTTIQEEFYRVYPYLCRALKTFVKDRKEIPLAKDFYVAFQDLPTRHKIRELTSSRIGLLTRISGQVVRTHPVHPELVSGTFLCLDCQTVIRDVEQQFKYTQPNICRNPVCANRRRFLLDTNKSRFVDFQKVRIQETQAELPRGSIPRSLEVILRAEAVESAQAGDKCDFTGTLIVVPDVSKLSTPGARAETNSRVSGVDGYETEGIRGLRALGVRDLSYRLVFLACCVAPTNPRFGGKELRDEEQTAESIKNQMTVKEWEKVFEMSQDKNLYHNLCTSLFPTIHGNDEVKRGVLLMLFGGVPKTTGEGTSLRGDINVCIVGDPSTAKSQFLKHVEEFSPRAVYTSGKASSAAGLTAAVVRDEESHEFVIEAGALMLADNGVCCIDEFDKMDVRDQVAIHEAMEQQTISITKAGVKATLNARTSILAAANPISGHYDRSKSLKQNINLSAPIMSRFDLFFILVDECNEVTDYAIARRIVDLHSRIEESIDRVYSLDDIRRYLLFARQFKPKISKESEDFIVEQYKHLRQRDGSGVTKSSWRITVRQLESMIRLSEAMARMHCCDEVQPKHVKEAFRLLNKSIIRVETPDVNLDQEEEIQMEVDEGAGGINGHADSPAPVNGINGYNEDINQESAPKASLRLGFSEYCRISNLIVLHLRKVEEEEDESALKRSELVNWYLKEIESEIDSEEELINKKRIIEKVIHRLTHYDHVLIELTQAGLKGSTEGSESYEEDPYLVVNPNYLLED
The target of experiment [5] is proteins of HEK293T cells transiently overexpressing caspase-6 (Homo sapiens, UniProt P15880). To be noted: Comp; protein RPS2 P15880.
The target in experiment [6] is proteins of HEK293T cells transiently overexpressing caspase-6 (Homo sapiens, UniProt P62280). To be noted: Comp; protein RPS11 P62280.
Experiment [7] has as its target proteins of HEK293T cells transiently overexpressing caspase-6 (Homo sapiens, UniProt P27695). The following applies: Comp; protein APEX1 P27695.
The target of experiment [8] is proteins of HEK293T cells transiently overexpressing caspase-6 (Homo sapiens, UniProt P17987). To be noted: Comp; protein TCP1 P17987.
Sequence of proteins of HEK293T cells transiently overexpressing caspase-6 (Homo sapiens, UniProt P17987) (P17987 whole entry): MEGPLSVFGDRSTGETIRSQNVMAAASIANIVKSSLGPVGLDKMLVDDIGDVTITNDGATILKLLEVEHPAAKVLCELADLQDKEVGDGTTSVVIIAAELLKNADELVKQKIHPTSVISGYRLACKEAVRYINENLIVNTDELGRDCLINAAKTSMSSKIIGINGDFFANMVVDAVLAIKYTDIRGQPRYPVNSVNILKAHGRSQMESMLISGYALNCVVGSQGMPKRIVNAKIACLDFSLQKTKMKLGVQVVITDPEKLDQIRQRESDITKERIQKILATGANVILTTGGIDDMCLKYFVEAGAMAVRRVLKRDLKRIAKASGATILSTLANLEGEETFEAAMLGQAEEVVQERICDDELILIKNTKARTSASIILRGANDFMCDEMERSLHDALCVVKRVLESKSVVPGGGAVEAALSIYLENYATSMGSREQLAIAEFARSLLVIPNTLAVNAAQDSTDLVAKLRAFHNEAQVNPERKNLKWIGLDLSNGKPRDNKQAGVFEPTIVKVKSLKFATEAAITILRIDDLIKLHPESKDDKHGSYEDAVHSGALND
The target of experiment [9] is proteins of HEK293T cells transiently overexpressing caspase-6 (Homo sapiens, UniProt P14625). The following applies: Comp; protein HSP90B1 P14625.
Sequence of proteins of HEK293T cells transiently overexpressing caspase-6 (Homo sapiens, UniProt P14625) (P14625 22-803): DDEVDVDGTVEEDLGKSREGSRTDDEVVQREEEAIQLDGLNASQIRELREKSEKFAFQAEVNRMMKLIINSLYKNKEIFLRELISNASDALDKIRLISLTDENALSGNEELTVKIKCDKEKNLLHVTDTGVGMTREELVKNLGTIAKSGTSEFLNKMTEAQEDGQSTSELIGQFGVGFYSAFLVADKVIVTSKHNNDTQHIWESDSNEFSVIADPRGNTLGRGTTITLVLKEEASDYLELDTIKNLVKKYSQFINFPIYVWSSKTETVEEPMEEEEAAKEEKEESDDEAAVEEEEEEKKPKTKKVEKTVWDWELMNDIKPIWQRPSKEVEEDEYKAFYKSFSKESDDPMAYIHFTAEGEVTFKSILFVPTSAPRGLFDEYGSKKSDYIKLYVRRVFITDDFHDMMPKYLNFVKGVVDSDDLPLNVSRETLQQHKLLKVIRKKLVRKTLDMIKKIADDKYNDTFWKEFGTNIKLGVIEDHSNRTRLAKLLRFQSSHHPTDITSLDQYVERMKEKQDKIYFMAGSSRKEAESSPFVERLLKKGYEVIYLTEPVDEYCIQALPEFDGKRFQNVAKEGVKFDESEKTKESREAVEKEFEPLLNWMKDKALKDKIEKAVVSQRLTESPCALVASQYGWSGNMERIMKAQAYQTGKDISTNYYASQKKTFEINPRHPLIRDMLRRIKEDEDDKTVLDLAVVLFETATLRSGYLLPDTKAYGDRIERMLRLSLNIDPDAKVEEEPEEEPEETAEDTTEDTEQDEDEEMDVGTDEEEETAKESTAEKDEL
The target of experiment [10] is proteins of HEK293T cells transiently overexpressing caspase-6 (Homo sapiens, UniProt P83731). To be noted: Comp; protein RPL24 P83731.
The target in experiment [11] is T2, proteins of HEK293T cells transiently overexpressing caspase-6 (Homo sapiens, UniProt P14324).
T2 sequence (P14324 1-419): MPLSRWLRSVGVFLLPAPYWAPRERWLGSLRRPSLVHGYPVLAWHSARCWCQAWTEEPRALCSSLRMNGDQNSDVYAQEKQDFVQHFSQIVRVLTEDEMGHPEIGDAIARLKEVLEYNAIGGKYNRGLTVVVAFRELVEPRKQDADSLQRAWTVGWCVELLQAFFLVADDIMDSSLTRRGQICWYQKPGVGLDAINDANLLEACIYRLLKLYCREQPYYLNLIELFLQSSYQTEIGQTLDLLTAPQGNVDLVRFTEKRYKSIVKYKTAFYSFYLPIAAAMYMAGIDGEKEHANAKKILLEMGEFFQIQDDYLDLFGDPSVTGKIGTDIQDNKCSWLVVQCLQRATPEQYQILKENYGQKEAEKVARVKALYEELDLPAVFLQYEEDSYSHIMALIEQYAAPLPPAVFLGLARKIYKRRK

The target of experiment [12] is proteins of HEK293T cells transiently overexpressing caspase-6 (Homo sapiens, UniProt P10809). The following applies: Comp; protein HSPD1 P10809.
Sequence of proteins of HEK293T cells transiently overexpressing caspase-6 (Homo sapiens, UniProt P10809) (P10809 27-573): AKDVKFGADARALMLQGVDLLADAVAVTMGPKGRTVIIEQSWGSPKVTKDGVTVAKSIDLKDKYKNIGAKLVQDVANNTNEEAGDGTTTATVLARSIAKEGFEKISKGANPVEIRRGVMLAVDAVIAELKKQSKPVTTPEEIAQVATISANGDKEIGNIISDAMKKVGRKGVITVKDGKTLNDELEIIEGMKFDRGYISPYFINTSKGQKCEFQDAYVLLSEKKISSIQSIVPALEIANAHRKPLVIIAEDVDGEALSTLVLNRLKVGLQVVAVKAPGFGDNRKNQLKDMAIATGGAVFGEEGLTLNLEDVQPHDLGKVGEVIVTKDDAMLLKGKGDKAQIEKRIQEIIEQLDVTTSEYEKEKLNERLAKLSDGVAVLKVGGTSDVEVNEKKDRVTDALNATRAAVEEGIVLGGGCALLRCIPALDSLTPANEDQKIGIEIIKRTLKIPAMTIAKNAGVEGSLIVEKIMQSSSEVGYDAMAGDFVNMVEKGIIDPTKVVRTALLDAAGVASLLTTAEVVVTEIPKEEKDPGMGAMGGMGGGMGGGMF
Experiment [13] concerns the target proteins of HEK293T cells transiently overexpressing caspase-6 (Homo sapiens, UniProt O00299). To be noted: Comp; protein CLIC1 O00299.
Experiment [14] deals with proteins of HEK293T cells transiently overexpressing caspase-6 (Homo sapiens, UniProt P46779). The following applies: Comp; protein RPL28 P46779.
The target in experiment [15] is proteins of HEK293T cells transiently overexpressing caspase-6 (Homo sapiens, UniProt P12004). To be noted: Comp; protein PCNA P12004.
Sequence of proteins of HEK293T cells transiently overexpressing caspase-6 (Homo sapiens, UniProt P12004) (P12004 whole entry): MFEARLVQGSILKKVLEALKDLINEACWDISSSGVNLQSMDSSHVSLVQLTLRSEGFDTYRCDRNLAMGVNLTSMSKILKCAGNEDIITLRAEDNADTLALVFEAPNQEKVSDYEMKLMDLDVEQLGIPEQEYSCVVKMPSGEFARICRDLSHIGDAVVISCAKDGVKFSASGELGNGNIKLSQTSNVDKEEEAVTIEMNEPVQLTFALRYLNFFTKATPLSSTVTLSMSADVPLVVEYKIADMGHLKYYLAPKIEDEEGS
The target in experiment [16] is proteins of HEK293T cells transiently overexpressing caspase-6 (Homo sapiens, UniProt Q13148). The following applies: Comp; protein TARDBP Q13148.
Sequence of proteins of HEK293T cells transiently overexpressing caspase-6 (Homo sapiens, UniProt Q13148) (Q13148 whole entry): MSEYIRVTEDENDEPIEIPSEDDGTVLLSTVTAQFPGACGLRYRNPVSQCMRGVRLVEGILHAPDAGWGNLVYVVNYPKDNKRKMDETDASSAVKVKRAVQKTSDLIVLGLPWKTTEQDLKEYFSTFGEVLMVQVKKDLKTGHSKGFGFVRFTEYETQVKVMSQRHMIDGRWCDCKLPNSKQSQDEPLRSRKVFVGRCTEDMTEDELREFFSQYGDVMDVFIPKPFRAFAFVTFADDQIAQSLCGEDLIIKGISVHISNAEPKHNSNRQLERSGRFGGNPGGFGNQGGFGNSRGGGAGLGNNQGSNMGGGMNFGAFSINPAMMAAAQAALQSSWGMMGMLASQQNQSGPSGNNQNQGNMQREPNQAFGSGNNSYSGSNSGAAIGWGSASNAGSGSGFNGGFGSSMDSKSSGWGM
Experiment [17] deals with proteins of HEK293T cells transiently overexpressing caspase-6 (Homo sapiens, UniProt P05388). To be noted: Comp; protein RPLP0 P05388.
Setting [18] is: protein PSMA4 (P25789), Exp Comp, analysis C6, p 0.0625, 5 peptides.
[19] abbreviates: protein FDPS (P14324), Exp Comp, analysis C6, p 0.2500, 4 peptides.

Sequence of proteins of HEK293T cells transiently overexpressing caspase-6 (Homo sapiens, UniProt P27695) (P27695 whole entry): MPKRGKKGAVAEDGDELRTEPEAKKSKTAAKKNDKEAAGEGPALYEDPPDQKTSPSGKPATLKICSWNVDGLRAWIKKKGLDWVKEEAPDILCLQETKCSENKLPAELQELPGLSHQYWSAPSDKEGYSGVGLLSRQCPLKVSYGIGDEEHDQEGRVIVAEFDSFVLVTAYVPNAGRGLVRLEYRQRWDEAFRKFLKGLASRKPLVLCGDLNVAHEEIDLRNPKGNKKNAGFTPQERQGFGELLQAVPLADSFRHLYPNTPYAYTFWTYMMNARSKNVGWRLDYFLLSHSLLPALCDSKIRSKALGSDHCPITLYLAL

Regarding `C=CS(=O)(=O)N1C[C@H](C(=O)Nc2ccc(OC(F)(F)F)cc2)C[C@@H](c2ccccc2)C1` [3a], the enrich.exp.med in [1] (Comp, protein PSMA4 P25789) is on record as 0.9624; in experiment [2], 0.7747; in experiment [3] it was 0.6321; in [4], 0.8484; in experiment [5], 0.7281; in [6], 0.7926. In addition, the enrich.exp.med in [7] is listed as 0.6367; in experiment [8], 0.7901; in experiment [9], 0.7874; in experiment [10], 0.668; in [11] (Comp, protein FDPS P14324) it was 1.087; in [12], 0.6402. Also, the enrich.exp.med in experiment [13] is reported as 0.583; in [14] it was 0.6162; in [15], 0.6316; in experiment [16] it was 0.8327; in [17] it was 0.8946. Besides, the figures for the enrich.exp.med.lin in [1] (setting [18]) and in experiment [11] (setting [19]) were 1.949 and 2.124, respectively. Moreover, the figures for the enrich.exp.med.log2 in [1] (setting [18]) and in experiment [11] (setting [19]) were 0.9624 and 1.087, respectively.

Source of the values: PMC10176470, “Engaging a Non-catalytic Cysteine Residue Drives Potent and Selective Inhibition of Caspase-6” (Journal of the American Chemical Society, 2023).
